In one experiment the test system is G9a methylation. In words: G9a methylation level in NALM6 cells treated with KDM inhibitors. Format: cell-based, human. An excerpt: There are two distinct families of KDM with distinct catalytic mechanisms (FIG. 50B). We tested one inhibitor for each family: OG-L002 inhibits the two members of the LSD family of KDM, and JIB-04 inhibits several members of the large JmjC family of KDM, including members of the KDM2, KDM3, and KDM4 subfamilies. We propose that there is an equilibrium between the enzymes that methylate G9a and GLP (in this case they methylate themselves) and the KDM enzymes to maintain a moderate level of G9a/GLP methylation (FIGS. 50C-1, 50C-2), and that inhibition of the KDMs that normally demethylate G9a and GLP (currently unknown) will increase the level of G9a/GLP methylation and thereby enhance the coactivator activity of G9a/GLP, the GC activation of the cell death genes, and GC-induced cell death in B-ALL cells. Thus, as a first step to identify the G9a/GLP-specific demethylases, we treated NALM6 cells with the two inhibitors named above. OG-L002 had no effect on the level of G9a methylation, but JIB-04 increased the level of G9a methylation in NALM6 cells (FIG. 50D).

Experiment [1] deals with NALM6 cells. The experiment in a line: Cell death assay (Presto Blue, 72 h) with dex plus inhibitor. The format is cell-based, human. As for the experimental part:
Cells were plated in CellStar low evaporation lid 96-well round-bottom plate at a density of 100,000 cells/ml. Directly after plating, cells were treated in triplicate with serial dilutions of dexamethasone or vehicle control (0.1% ethanol). After 72 h, cell viability of each well was analyzed in duplicate using the Presto Blue Assay Reagent (Life Technologies). Fluorescence was measured and data were analyzed with Prism6 software.
(§1) FIGS. 40A, 40B, 40C, 40D-1, 40D-2, 40D-3, and 40D-4 show Aurora kinase B inhibitors sensitizing NALM6 cells to GC-induced cell death. As shown in FIGS. 40A and 40B, NALM6 cells were treated with the indicated dex concentration in addition to 0.75 μM ZM447439 (FIG. 40A), 16 nM AZD2811 (FIG. 40B), or equivalent volume of vehicle DMSO for 72 h, and cell survival was measured by a fluorescence metabolic assay. In each condition, the value measured with dex was normalized to the fluorescence value measured with ethanol. Percentage of survival is shown as the mean±SEM of 4 independent experiments and p-values for individual dex concentrations were calculated using a paired t-test. *p≤0.05, **p≤0.01, * * *p≤0.001. F-test comparing the two curves: p≤0.001. Insets show the EC50s that were calculated as the concentration at which half the cells remained alive, compare to vehicle controls. Error bars depict the SEM of 4 independent experiments and p-values were calculated to compare AURKB inhibitor treatment to DMSO using a paired t-test ** p≤0.01, * * *p≤0.001. […] The indicated proteins were then examined by immunoblot. As shown in FIGS. 40D-1, 40D-2, 40D-3, and 40D-4, NALM6 cells pre-treated with AZD2811 (16 nM) or DMSO for 24 h, were then treated for 8 h with 100 nM dex or ethanol. mRNA levels for the indicated GR target genes were measured by RT-qPCR and normalized to β-actin mRNA levels.
FIGS. 48A, 48B, 48C, 48D, 48E, and 48F show the effect of AURKB inhibitors on EHMT2 phosphorylation and dex-induced cell death. […] In each condition, the value measured with dex was normalized to the fluorescence value measured with ethanol. Percentage of survival is shown as the mean±SEM of 4 independent experiments and p-values for individual dex concentrations were calculated using a paired t-test. *p≤0.05, **p≤0.01, * * *p≤0.001. F-test comparing the two curves: p≤0.001. EC50s were calculated as the concentration at which half the cells remained alive, compare to vehicle controls. Error bars depict the SEM of 4 independent experiments and p-value was calculated to compare ZM treatment to DMSO using a paired t-test **p≤0.01, * * *p≤0.001. […] EC50s were calculated as the concentration at which half the cells remained alive, compare to vehicle controls. Error bars depict the SEM of 4 independent experiments and p-value was calculated to compare alisertib treatment to DMSO using a paired t-test. […] (E-F) RCH-ACV cells were treated with the indicated dex concentration in addition to 0.75 μM ZM447439 (FIG. 48E), 16 nM AZD2811 (FIG. 48F), or DMSO for 72 h, and cell survival was measured by a fluorescence metabolic assay. In each condition, the value measured with dex was normalized to the fluorescence value measured with ethanol. Percentage of survival is shown as the mean±SEM of 5 individual experiments and the p-value for each dex concentration was calculated using a paired t-test. *p≤0.05, **p≤0.01, * * *p≤0.001. F-test comparing the two curves: p≤0.001.
FIGS. 55A, 55B, and 55C show JIB-04 enhances GC-induced death of B-ALL cell line NALM6.

Experiment [2] concerns GR target genes in NALM6 cells. In words: RT-qPCR of GR target genes in NALM6 cells. The note with it: NALM6, 16 nM AZD2811 24 h, then 100 nM dex 8 h. Format: cell-based, human. As for the experimental part:
RNA was isolated using TRIzol (Invitrogen) according to the manufacturer's instructions. Reverse transcription reaction was performed using Superscript III (ThermoFisher) according to specifications with 1 μg of total RNA as template. Quantitative PCR amplification of the resulting cDNA was performed on a Roche LightCycler 480 using SYBR green I master mix (Roche). mRNA levels were normalized to the level of b-actin mRNA.
as §1
FIGS. 54A, 54B, and 54C highlight the GR Target genes that require G9a and GLP as coactivators.
A general note: In qPCR the cycle at which signal appears reflects the starting amount.

Another experiment deals with EHMT2 phosphorylation. The experiment in a line: Phosphorylation of EHMT2 in NALM-6 cells (pan ph-T immunoprecipitation, EHMT2 immunoblot). The note with it: NALM-6, 16 nM AZD2811, 24 h. Format: cell-based, human. As for the experimental part: (§2) Cells were treated as indicated, and cell extracts were prepared in RIPA buffer ([…] Tris-HCl, pH 8, 150 mM NaCL, 1 mM EDTA, 1% NP-40, and 0.25% deoxycholate) supplemented with protease inhibitor tablets (Roche Molecular Biochemicals) and phosphatase inhibitors (1 mM NaF, 1 mM Na3VO4, and 1 mM β-glycerophosphate). Protein extracts were incubated overnight at 4° C. with shaking with 1 μg of antibodies against EHMT2 (Sigma G6919), EHMT1 (Millipore 09-078), or pan phospho-threonine (Millipore AB1607). Protein A/G plus agarose beads (Santa Cruz sc-2003) were added, and the mixture was incubated 2 h at 4° C. The immunoprecipitates were separated on SDS-PAGE. […]
FIGS. 48A, 48B, 48C, 48D, 48E, and 48F show the effect of AURKB inhibitors on EHMT2 phosphorylation and dex-induced cell death. […] In each condition, the value measured with dex was normalized to the fluorescence value measured with ethanol. Percentage of survival is shown as the mean±SEM of 4 independent experiments and p-values for individual dex concentrations were calculated using a paired t-test. *p≤0.05, **p≤0.01, * * *p≤0.001. […] EC50s were calculated as the concentration at which half the cells remained alive, compare to vehicle controls. Error bars depict the SEM of 4 independent experiments and p-value was calculated to compare ZM treatment to DMSO using a paired t-test **p≤0.01, * * *p≤0.001. […]

In experiment [3] the test system is NALM6 cells. The experiment in a line: Immunoblot of apoptosis markers (cleaved caspase 3, caspase 7, PARP1) in NALM6 cells. Format: cell-based, human. Conditions: 16 nM AZD2811 pretreatment 24 h, then 100 nM dex 24 h. The procedure: as §2
FIGS. 40A, 40B, 40C, 40D-1, 40D-2, 40D-3, and 40D-4 show Aurora kinase B inhibitors sensitizing NALM6 cells to GC-induced cell death. As shown in FIGS. 40A and 40B, NALM6 cells were treated with the indicated dex concentration in addition to 0.75 μM ZM447439 (FIG. 40A), 16 nM AZD2811 (FIG. 40B), or equivalent volume of vehicle DMSO for 72 h, and cell survival was measured by a fluorescence metabolic assay. In each condition, the value measured with dex was normalized to the fluorescence value measured with ethanol. Percentage of survival is shown as the mean±SEM of 4 independent experiments and p-values for individual dex concentrations were calculated using a paired t-test. *p≤0.05, **p≤0.01, * * *p≤0.001. […]

Experiment [4] deals with LAX7R and LAX56 primary human B-ALL cells. In words: Survival of primary B-ALL cells co-cultured with OP-9 feeder cells (Annexin V/7AAD). The format is cell-based. As for the experimental part: Primary ALL cells (LAX7R and LAX56) were established from mouse xenografts derived from patient samples (Adam et al., 2017; Hsieh et al., 2013). They were cultured in 24 well tissue-culture plates on irradiated OP-9 cells with growth medium containing MEM-α with 20% heat-inactivated fetal bovine serum, and 100 IU/ml penicillin and 100 μg/ml streptomycin. On day 3 and day 5 after the addition of drugs, ALL cells were collected, and apoptosis was assessed using PE Annexin V Apoptosis Detection Kit with 7-AAD.
As shown FIGS. 41A-1, 41A-2, 41B-1, and 41B-2, LAX7R (FIGS. 41A-1 and 41A-2) or LAX56 (FIGS. 41B-1 and 41B-2) primary human B-ALL cells were co-cultured with OP-9 feeder cells for 3 days (left) or 5 days (right) in the presence of the indicated drugs, and cell survival was determined by staining with Annexin/7AAD. p-value was calculated using a paired t-test, and different symbols were used to indicate p-values between different groups.+indicates statistical significance (+p≤0.05, ++p≤0.01 and + + + p≤0.001) between Dexamethasone or AZD2811 treated group and DMSO control group; # indicates statistical significance (#p≤0.05, ##p≤0.01 and # # # p≤0.001) between AZD2811+Dexamethasone combination group and AZD2811 group; * indicates statistical difference (*p≤0.05, **p≤0.01, * * *p≤0.001) between combination group and respective Dexamethasone treated groups. Values shown are mean and SD for 3 biological replicates, which are representative of 3 independent experiments.

Results on two compounds are retold here after patent publication US20200181284A1, “EPIGENETIC INHIBITORS FOR SENSITIZING HEMATOLOGIC OR OTHER MALIGNANCIES TO GLUCOCORTICOID THERAPY” (UNIVERSITY OF SOUTHERN CALIFORNIA, priority 2017, published 2020).

Consider `N[C@H]1C[C@@H]1c1ccc(-c2cccc(O)c2)cc1` [OG-L002, 3-[4-[(1R,2S)-2-aminocyclopropyl]phenyl]phenol], for which the “level of G9a methylation” value with G9a methylation is listed as “no effect”. Moreover, the “GC-induced death of NALM6 cells” value with NALM6 cells [1] (72 hours with various dex concentrations plus KDM inhibitor) is listed as “no effect”.
Consider `CCN(CCO)CCCOc1ccc2c(Nc3cc(CC(=O)Nc4cccc(F)c4)[nH]n3)ncnc2c1` [AZD2811], for which the “dex-induced expression of dex-effector genes that utilize EHMT2, EHMT1 and CBX3” value in experiment [2] is recorded as “enhanced”. Further, the “phosphorylation of EHMT2” value with EHMT2 phosphorylation is “decreased”. Besides, the dex-induced cell death result in the experiment on NALM6 cells [1] (NALM6, 16 nM AZD2811, 72 h) is listed as “enhanced”. Further, the “cleavage of apoptotic markers in dex-treated NALM6” value with NALM6 cells [3] is reported as “increased”. For the same compound, in experiment [4] (16 nM AZD2811 alone, 3 or 5 days), the “cell survival compared with the vehicle-treated control” value was 70-80%. Also, the cell survival in experiment [4] (16 nM AZD2811 in combination with 0.1 nM dex, 3 or 5 days) is 10-40%. In addition, in experiment [4] (16 nM AZD2811 with dex), the “dex sensitivity of the two dex-resistant primary B-ALL lines” value was “dramatically enhanced”.
